# Legend:
# Experiment in all cases: pIC50, kinobeads binding competition
# UniProt Q8TF76 = molecular target: T1, UniProt Q8TF76
# T1 sequence (whole entry): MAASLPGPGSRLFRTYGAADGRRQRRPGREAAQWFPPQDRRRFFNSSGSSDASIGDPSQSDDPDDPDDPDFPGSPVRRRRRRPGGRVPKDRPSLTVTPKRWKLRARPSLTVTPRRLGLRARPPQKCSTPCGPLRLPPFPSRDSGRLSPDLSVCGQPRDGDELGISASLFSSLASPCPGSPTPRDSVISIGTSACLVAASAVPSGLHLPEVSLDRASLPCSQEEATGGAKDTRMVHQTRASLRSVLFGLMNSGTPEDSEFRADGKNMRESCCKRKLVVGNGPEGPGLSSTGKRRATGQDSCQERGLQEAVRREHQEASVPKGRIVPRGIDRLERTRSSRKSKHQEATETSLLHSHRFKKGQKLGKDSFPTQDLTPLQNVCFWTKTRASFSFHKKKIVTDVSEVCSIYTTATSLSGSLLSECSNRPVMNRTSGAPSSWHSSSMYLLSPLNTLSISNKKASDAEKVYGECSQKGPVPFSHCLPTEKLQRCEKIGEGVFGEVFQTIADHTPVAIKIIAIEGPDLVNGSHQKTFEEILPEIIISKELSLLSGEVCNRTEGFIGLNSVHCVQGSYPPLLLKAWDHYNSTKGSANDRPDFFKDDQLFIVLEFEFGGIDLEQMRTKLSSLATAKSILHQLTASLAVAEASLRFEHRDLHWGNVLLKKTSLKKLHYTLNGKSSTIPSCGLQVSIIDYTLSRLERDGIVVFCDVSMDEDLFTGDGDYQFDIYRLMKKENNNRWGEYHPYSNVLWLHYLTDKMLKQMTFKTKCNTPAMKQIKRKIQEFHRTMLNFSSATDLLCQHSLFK
# Outline: (§1)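 To obtain pIC50, fold changes versus vehicle were fitted to logistic dose-response curves (R drc package) across biological duplicates. Protein binding to Kinobeads was quantified by TMT10 LC-MS/MS of digested bead-bound proteins. Treatments used nine concentrations with a top of 30 μM, applied to live Jurkat cells in 1:4 steps for 60 min at 37 °C before lysis, or to Jurkat lysate or a 1:1:1:1 HEK293/K-562/HepG2/placenta lysate mix in 1:5 steps for 60 min at 4 °C.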
# SLK = SLK (UniProt Q9H2G2)
# Outline: as §1
# HIPK2 = HIPK2 (UniProt Q9H2X6)
# Outline: as §1
# UniProt O94768 = molecular target: T2, UniProt O94768
# T2 sequence (whole entry): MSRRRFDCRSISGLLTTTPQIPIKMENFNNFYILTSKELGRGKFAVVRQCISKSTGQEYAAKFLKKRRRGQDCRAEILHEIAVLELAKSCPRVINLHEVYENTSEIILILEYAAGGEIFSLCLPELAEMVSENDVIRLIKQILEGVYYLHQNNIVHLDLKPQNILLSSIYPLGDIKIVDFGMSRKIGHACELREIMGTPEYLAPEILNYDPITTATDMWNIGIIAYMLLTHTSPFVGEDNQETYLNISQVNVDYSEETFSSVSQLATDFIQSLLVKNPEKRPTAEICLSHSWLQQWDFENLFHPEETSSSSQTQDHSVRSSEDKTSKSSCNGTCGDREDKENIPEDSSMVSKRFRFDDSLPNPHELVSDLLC
# Outline: as §1
# UniProt O95382 = molecular target: T3, UniProt O95382; details: cell material: Lysate mix
# T3 sequence (whole entry): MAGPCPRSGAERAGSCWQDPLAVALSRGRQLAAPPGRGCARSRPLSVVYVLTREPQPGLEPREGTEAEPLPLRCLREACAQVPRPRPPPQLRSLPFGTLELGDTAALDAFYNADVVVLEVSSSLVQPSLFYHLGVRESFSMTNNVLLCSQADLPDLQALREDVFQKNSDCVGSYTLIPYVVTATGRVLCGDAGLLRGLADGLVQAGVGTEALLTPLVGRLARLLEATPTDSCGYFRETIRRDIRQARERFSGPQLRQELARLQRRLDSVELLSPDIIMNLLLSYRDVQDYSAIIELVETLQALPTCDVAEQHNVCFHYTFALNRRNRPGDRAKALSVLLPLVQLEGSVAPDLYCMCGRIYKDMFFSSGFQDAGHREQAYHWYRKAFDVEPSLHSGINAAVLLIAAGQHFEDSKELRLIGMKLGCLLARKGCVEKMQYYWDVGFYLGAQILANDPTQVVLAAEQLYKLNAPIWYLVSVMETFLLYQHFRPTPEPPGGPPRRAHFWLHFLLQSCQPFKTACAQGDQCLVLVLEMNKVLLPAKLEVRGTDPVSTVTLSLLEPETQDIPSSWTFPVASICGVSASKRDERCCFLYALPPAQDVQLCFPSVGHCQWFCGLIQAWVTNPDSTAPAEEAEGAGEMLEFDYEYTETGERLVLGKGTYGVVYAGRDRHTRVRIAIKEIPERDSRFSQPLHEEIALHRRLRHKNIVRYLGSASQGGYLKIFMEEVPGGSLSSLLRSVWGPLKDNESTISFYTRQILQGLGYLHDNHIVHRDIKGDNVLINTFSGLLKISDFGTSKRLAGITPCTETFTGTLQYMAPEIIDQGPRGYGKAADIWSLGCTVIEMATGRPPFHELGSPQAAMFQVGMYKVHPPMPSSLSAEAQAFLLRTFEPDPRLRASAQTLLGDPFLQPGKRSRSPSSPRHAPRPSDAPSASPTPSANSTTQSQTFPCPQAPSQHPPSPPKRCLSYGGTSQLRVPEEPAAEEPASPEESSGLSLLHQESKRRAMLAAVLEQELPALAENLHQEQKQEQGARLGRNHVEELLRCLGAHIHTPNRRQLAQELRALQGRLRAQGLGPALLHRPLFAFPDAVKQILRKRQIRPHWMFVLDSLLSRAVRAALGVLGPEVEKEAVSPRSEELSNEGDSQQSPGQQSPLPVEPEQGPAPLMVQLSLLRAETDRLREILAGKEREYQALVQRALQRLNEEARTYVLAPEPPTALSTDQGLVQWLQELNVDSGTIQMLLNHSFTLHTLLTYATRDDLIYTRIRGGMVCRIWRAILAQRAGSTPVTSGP
# Outline: as §1
# ABL2 = ABL2 (UniProt P42684)
# Outline: as §1
# Sequence of SLK (Q9H2G2 whole entry, looked up): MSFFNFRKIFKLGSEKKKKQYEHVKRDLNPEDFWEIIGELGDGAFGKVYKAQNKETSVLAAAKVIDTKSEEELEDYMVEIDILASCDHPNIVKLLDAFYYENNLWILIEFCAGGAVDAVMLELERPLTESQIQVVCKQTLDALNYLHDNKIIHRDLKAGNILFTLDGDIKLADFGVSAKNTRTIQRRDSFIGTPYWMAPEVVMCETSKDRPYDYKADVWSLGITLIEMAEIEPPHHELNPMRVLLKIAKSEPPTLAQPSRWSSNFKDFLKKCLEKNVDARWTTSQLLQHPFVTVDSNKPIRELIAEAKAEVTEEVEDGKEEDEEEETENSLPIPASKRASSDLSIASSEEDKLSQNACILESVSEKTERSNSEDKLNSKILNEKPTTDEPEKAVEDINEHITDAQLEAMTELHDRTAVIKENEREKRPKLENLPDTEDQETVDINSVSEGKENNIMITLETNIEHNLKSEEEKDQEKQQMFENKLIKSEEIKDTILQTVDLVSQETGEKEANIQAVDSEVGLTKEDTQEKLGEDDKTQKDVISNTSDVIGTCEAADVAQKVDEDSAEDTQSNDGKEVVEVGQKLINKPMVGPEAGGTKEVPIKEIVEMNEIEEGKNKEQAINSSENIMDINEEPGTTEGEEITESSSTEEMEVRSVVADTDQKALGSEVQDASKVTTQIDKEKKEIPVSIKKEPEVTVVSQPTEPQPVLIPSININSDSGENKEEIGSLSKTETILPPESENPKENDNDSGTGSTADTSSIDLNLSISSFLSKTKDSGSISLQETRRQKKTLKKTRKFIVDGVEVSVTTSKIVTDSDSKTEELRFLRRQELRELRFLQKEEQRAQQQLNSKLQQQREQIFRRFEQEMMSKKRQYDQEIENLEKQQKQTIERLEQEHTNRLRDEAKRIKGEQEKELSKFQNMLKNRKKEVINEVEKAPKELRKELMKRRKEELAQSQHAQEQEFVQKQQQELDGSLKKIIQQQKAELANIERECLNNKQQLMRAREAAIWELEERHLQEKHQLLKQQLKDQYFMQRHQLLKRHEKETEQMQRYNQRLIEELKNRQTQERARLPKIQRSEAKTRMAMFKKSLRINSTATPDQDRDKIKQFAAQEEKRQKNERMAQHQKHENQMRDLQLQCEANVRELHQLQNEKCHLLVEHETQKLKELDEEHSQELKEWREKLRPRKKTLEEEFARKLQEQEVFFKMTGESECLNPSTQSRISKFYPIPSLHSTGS
# Sequence of ABL2 (P42684 whole entry): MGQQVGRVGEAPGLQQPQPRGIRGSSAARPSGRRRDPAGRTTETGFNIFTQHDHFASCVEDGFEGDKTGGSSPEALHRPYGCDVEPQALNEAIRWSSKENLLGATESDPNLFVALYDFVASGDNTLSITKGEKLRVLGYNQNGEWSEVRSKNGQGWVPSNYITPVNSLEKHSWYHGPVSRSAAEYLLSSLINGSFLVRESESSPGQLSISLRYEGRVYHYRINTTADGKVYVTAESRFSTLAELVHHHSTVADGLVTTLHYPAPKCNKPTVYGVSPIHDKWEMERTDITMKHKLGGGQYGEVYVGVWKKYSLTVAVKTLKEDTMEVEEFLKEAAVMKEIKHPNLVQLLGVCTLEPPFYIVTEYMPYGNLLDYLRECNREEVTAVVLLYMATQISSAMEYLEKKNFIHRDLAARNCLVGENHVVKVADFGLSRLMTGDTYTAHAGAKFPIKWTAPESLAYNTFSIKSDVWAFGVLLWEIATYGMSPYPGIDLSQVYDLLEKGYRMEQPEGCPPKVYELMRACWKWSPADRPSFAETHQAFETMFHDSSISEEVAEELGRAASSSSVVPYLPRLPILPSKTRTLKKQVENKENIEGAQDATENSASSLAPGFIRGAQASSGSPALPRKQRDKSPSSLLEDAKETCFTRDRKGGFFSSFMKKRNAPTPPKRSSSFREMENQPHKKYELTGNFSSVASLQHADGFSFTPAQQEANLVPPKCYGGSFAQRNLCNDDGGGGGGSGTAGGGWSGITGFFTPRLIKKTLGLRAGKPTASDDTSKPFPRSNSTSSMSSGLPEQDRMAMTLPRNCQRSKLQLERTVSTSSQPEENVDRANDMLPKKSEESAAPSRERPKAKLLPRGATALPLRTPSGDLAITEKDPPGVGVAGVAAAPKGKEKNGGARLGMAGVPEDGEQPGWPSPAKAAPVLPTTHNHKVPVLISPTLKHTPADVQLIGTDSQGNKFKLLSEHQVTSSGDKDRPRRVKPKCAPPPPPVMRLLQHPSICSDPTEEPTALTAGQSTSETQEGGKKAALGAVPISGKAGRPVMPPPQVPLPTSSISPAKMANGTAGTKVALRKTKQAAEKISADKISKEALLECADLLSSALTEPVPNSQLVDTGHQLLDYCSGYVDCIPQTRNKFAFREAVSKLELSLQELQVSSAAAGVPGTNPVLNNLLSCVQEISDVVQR
# Sequence of HIPK2 (Q9H2X6 whole entry, looked up): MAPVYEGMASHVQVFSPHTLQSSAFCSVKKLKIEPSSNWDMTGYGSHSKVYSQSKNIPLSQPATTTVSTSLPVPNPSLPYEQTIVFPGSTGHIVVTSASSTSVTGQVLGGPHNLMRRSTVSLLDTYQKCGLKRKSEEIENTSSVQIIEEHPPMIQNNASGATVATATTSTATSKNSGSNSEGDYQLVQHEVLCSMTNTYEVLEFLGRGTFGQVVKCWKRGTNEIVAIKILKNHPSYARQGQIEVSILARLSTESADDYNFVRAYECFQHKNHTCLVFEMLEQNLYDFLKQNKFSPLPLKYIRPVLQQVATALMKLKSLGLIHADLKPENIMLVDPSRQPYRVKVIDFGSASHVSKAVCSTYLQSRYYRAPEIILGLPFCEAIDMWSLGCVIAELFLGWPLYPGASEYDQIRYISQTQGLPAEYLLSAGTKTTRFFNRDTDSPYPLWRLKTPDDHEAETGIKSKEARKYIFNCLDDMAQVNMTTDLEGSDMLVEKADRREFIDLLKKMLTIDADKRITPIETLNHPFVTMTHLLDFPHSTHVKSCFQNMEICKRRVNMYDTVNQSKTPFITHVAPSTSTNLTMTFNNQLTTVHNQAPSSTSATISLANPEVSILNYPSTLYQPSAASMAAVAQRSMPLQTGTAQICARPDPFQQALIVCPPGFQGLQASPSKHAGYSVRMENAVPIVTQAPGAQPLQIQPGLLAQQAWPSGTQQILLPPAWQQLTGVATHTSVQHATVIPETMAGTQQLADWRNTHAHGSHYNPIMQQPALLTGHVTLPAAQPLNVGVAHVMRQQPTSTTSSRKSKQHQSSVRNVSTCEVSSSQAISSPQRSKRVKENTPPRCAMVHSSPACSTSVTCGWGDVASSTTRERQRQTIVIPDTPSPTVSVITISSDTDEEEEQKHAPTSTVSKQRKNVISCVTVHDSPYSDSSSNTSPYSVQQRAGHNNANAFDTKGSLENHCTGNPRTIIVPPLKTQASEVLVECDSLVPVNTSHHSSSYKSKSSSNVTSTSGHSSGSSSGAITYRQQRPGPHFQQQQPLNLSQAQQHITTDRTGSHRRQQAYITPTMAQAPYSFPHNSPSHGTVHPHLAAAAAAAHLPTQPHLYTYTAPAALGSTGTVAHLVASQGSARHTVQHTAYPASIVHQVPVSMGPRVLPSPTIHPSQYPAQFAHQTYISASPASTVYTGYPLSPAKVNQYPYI
Compound,pIC50 (UniProt Q8TF76; cell material: Lysate mix),pIC50 (SLK; cell material: Lysate mix),pIC50 (HIPK2; cell material: Lysate mix),pIC50 (UniProt O94768; cell material: Lysate mix),pIC50 (UniProt O95382),pIC50 (ABL2; cell material: Lysate mix),pIC50 (UniProt Q8TF76; cell material: Jurkat cells),pIC50 (UniProt Q8TF76; cell material: Jurkat lysate),pIC50 (SLK; cell material: Jurkat cells),pIC50 (SLK; cell material: Jurkat lysate),pIC50 (HIPK2; cell material: Jurkat cells),pIC50 (HIPK2; cell material: Jurkat lysate),pIC50 (UniProt O94768; cell material: Jurkat lysate),pIC50 (ABL2; cell material: Jurkat cells),pIC50 (ABL2; cell material: Jurkat lysate),pIC50 (UniProt O94768; cell material: Jurkat cells)
CCNC(=O)c1cc(Nc2cc(C)[nH]n2)nc(N2CCN(Cc3ccc(S(=O)(=O)F)cc3)CC2)n1,< 4.52,< 4.52,4.77,< 4.52,4.66,4.81,–,–,–,–,–,–,–,–,–,–
CCNC(=O)c1cc(Nc2cc(C3CC3)[nH]n2)nc(N2CCN(Cc3ccc(S(=O)(=O)F)cc3)CC2)n1,< 4.52,< 4.52,5.72,< 4.52,< 4.52,5.35,–,–,–,–,–,–,–,–,–,–
Cc1cc(Nc2cc(C(=O)NCCNC(=O)OC3CC/C=C/CCC3)nc(N3CCN(Cc4ccc(S(=O)(=O)F)cc4)CC3)n2)n[nH]1 (stereo not given),< 4.52,< 4.52,< 4.52,< 4.52,< 4.52,< 4.52,–,–,–,–,–,–,–,–,–,–
C#CCNC(=O)c1cc(Nc2cc(C3CC3)[nH]n2)nc(N2CCN(Cc3ccc(S(=O)(=O)F)cc3)CC2)n1,< 4.52,< 4.52,5.92,< 4.52,< 4.52,5.39,5.26,< 4.52,5.46,< 4.52,6.12,5.54,< 4.52,5.87,4.65,–
C#CCNC(=O)c1cc(Nc2cc(C)[nH]n2)nc(N2CCN(Cc3ccc(S(=O)(=O)F)cc3)CC2)n1,< 4.52,< 4.52,4.98,< 4.52,4.63,4.64,–,–,–,–,–,–,–,–,–,–
O=C(NCCNC(=O)c1cc(Nc2cc(C3CC3)[nH]n2)nc(N2CCN(Cc3ccc(S(=O)(=O)F)cc3)CC2)n1)OC1CC/C=C/CCC1 (stereo not given),< 4.52,< 4.52,< 4.52,< 4.52,< 4.52,< 4.52,< 4.52,< 4.52,< 4.52,< 4.52,5.49,< 4.52,< 4.52,5,< 4.52,< 4.52

# From the supplement of paper PMC12076712
